Patent US4228155A, “Synthetic peptides having pituitary growth hormone releasing activity” (Beckman Instruments, Inc., priority 1979, dated 1980)
“And” between values parts separate entries of the source, which are not always exact repeats. Equal values may be shown once. Where a SMILES comes first, the peptide text is derived from it. [ ]: non-standard residue; d: D form.

System: pituitary
Experiment: In vitro growth hormone release study (incubated rat pituitaries, GH radioimmunoassay)
Type: cell-based
Conditions: pituitaries of 20 day old female rats, ΔGH (I3-P2),(I4-P2), ± SEM
Procedure: Female rats of the CD-1 strain were housed in a constant temperature room at 24° C. with 14 hours light and 10 hours darkness. The rats were fed Purina brand rat chow ab libitum.
All studies were started between 0800 and 1000 hours.
Pituitaries were removed from 20 day old female rats. Two pituitaries were incubated at 36° C. in 1 ml of lactated Ringer's solution in 10 ml polytetrafluoroethylene beakers in a Dubnoff Shaker (90 cycles/min.). The pituitaries were incubated a total of 4 hours (P1, P2, I3, and I4). After two successive one hour preincubation periods (P1, P2), the peptide was added to the incubation medium hourly for 2 hours (I3, I4).
This in vitro study was performed in triplicate and a standard radioimmunoassay of growth hormone present in the incubation medium was performed in duplicate. The hormonal activity was calculated as the difference (Δ) of growth hormone (GH) levels between I3, I4 and P2, i.e., (I3 -P2) and (I4 -P2). P values were calculated by Students' t test using six growth hormone values for each value recorded.
The growth hormone radioimmunoassay reagents were distributed by the National Institute of Arthritis and […] (NIAMDD) program. The growth hormone values were calculated in terms of nanograms (ng) of a rat standard with a growth hormone potency of 0.61 units/mg.

CSCC[C@H](NC(=O)[C@H](CCCCN)NC(=O)[C@@H](Cc1ccccc1)NC(=O)[C@@H](Cc1ccccc1)NC(=O)[C@@H](N)Cc1c[nH]c2ccccc12)C(N)=O [H2 N--Trp--D-Phe--D-Phe--Lys--Met--CONH2, H2 N-Trp-D-Phe-D-Phe-Lys-Met-CONH2] (H-W[dF][dF]KM-NH2)
IN VITRO GROWTH HORMONE RELEASE (0.3μg peptide): 24 ± 24 ngΔGH/ml incubation medium | IN VITRO GROWTH HORMONE RELEASE (10μg peptide): 853 ± 138 ngΔGH/ml incubation medium and 440 ± 180 ngΔGH/ml incubation medium
